# Key:
# Format in all cases: in vivo, mouse
# [1] = Glucose tolerance testing in type 2 diabetes model
# Method: Glucose tolerance testing was conducted in fasted type 2 diabetic mice. Rodent chow was removed overnight and testing was conducted in the morning. After baseline glucose testing mice were injected intraperitoneal with sterile D-glucose (2 g/kg). Repeated blood glucose sampling was conducted every 15-30 minutes for 2 hours.
# [2] = system: C57BL6/J mice; experiment: Hind limb ischemia in type 1 diabetes model, laser Doppler perfusion
# Method: Male C57BL6/J mice 8-10 weeks of age were obtained from Australian BioResources (Moss Vale, NSW) with 12 hour light/dark cycles and free access to water and mouse chow (Specialty Feeds, Australia). Mice were housed in groups of 2-5 in standard cages within a Physical Containment Level 2 laboratory. For in vivo angiogenesis 16 mice underwent the femoral vascular ligation model. Mice were anaesthetized with 1.5-2% isoflurane vaporized in oxygen and constant body temperature was maintained. All mice received pre-operative and 24-hour post-operative analgesia (carprofen, 5 mg/kg s.c). A small incision (˜15 mm) was made in the hind limb skin directly over the femoral vasculature. A portion of the femoral artery and vein, distal to the origin of the profunda femoris artery and proximal to the saphenous artery, were isolated and two ligations were performed using 6-0 silk sutures. The femoral artery and vein were then excised between the ligation sites 27. […] Hind limb blood flow was assessed prior to ligation (baseline) and immediately after undergoing hind limb ischemia, with subsequent imaging at day 3, 7, 10, 14, 21 and 28 post hind limb ischemia. […] The rate of reperfusion in the hind limb was calculated as a ratio of blood flow in the ischemic versus non-ischemic contralateral limb. […]
# [3] = system: CD31; experiment: CD31 histological analysis of hind limbs post-ischemia; settings: both type 1 diabetes and non-diabetic mice
# Method: Formalin fixed paraffin-embedded gastrocnemius was cut into 4 μm sections and then sections were deparaffinized. Heat retrieval was performed with Tris-EDTA buffer at pH 9. Slides were incubated overnight with a rabbit polyclonal CD31 antibody (dilution 1:200, Abcam Ltd, Australia) followed by horseradish peroxidase anti-rabbit Envision system (Dako Cytochemistry, Tokyo, Japan). Staining was developed with 3.3 diaminobenzidine tetrahydrochloride (Dako Cytochemistry, Tokyo, Japan) and counterstained with Mayer's hematoxylin stain. Rabbit IgG negative controls (Dako Cytochemistry, Tokyo, Japan) were used. A total of ten non-overlapping images for each gastrocnemius were taken with a light microscope (Leica, DM750 linked to an ICC50 E camera module). Images were taken at ×40 and analyzed with National Institute of Health Image J 1.51j8 software.
# [4] = system: Nox 4; experiment: Immunoblot of hind limb Nox 4 expression
# Method: (§1) Hind limb tissue including the gastrocnemius and adductor muscles were isolated and collected at 14 or 28 days. Tissues were separated and implanted in OCT or placed in cryovials and snap-frozen in liquid nitrogen or were fixed in 10% formalin for 24-hours and then moved to 70% ethanol for storage.
# Gastrocnemius samples were stored at −80° C. and then mechanically homogenized in ice-cold lysis buffer containing 150 mmol/L NaCl, 200 mmol/L Tris-HCl (pH 8.0), 1% Triton X-100, 0.5% deoxycholic acid, 0.1% SDS, N-ethylmaleimide (25 mM) and protease inhibitors (cOmplete™ EDTA-free, Roche Diagnostics). 30 μg of protein lysate was denatured and run under reducing conditions on SDS-PAGE (Bolt™ pre-cast gels and reagents, Thermofisher Scientific, Australia) and transferred onto Immobilon polyvinylidene fluoride membrane (Merck Millipore, Australia). […] Membranes were detected using an Odyssey imaging platform (Licor, USA).
# [5] = system: superoxide; experiment: Superoxide generation by lucigenin enhanced chemiluminescence in hind limb tissue; settings: after 14 days of infusion
# Method: as §1
# Frozen adductor tissue was prepared for lucigenin-enhanced chemiluminescence assay by homogenising in lysis buffer (250 mM sucrose in phosphate-buffered saline (mM: 129 NaCl, 7 Na2HPO4, 3 NaH2PO4·2H2O, pH 7.4, with protease inhibitors (cOmplete™ EDTA-free, Roche Diagnostics). Sample was added to opaque 96-well plates in the presence of lucigenin (20 μmol/1 N,N′-Dimethyl-9,9′-biacridinium dinitrate) and NADPH (100 μM; β-Nicotinamide adenine dinucleotide 2′-phosphate reduced tetrasodium salt hydrate). The reaction was conducted at room temperature and tracked using a luminometer (Veritas, Turner Biosystems, USA) with an average measurement taken from 20 cycles, as described in Bubb et al., (2018, Microcirulation, e12501). Replicates of each sample were treated with manganese TMPyP (Merck Millipore, Australia, a cell-permeable superoxide dismutase mimetic, 30 μmol/L), during the assay and any signal was subtracted from the total signal as non-superoxide background signal. Superoxide production was normalized to protein concentration or cell count.
smiles,measurement,setting,value
"C[C@H](Cc1ccc2c(c1)OC(C(=O)[O-])(C(=O)[O-])O2)NC[C@H](O)c1cccc(Cl)c1.[Na+].[Na+] [CL 316,243]",fasted blood glucose levels,"[1]; fasted for glucose tolerance tests, did not reach significant difference",appeared lower
same,glucose tolerance,"[1]; non-hyperglycemic, non-diabetic controls",even improved
same,glucose tolerance,[1]; type 2 diabetic mice,improved
same,perfusion ratio,"[2]; citrate-buffer treated (non-diabetic) mice, also 14-28 days post-ischemia",not different from vehicle controls
same,greater ischemic-non-ischemic ratio (reperfusion),"[2]; type 1 diabetes mice, from 14 days onwards, 1 mg/kg/day s.c., vs vehicle",~20
same,CD31+ staining in ischemic hindlimbs (vascularization),[3],greater CD31+ staining
same,Nox 4 hind limb protein expression,"[4]; ischemic limb, non-diabetic mice, n=4, P>0.05",0.88±0.28 fold change from vehicle
same,diabetes-induced elevation in Nox4 expression,"[4]; type 1 diabetic mice, ischemic and non-ischemic limb, back to control levels",markedly reduced
same,superoxide bioavailability in the ischemic limb,[5],significantly lower
